The results in this text go back to article PMC12476087, “Loading of Dicarboxylatoplatinum(II)‐NHC Complexes in Bacterial Ghosts as an Advanced Development in Cancer Therapy” (Archiv Der Pharmazie, 2025).

Series [1] has as its system A2780wt cells. Description: Comet assay (intracellular DNA damage). The class given is cell-based. Particulars: 50 µM, 48 h incubation. As to the method: Given that platinum‐based drugs are known to commonly induce DNA damage, a comet assay was conducted using A2780wt cells. This assay detects DNA damage such as DNA single/double strand breaks and DNA fragmentation, a common feature of apoptosis. […] DMF (0.1%)‐treated cells were used as a negative control to establish baseline DNA integrity.
Cellular DNA damage can be visualized by employing a comet assay, which is a single cell gel electrophoresis assay. Hereby, A2780wt cells were seeded at a density of 2 × 10^6 into 25 cm^2 flasks. After letting the cells adhere for 24 h in a humidified atmosphere, the cell culture medium was exchanged for medium containing the respective compound. The cells were then incubated for 48 h with the platinum complexes or 4 h with etoposide, respectively. After incubation, the cell growth was stopped by removing the compound‐containing medium, washing the cells with phosphate‐buffered saline (PBS) and detaching them with a rubber policeman. The detached cells were then centrifuged at 700g for 2 min and the resulting pellet was then washed with 5 mL of PBS. After that, the cells were adjusted to a concentration of 1 × 10^6 cells/mL and were resuspended in ice cold PBS. A total of 75 µL of liquified agarose per condition was transferred onto the slide to create a base layer. This base layer was solidified by transferring the slide to 4°C for 15 min. Afterwards, 10 µL of the above‐mentioned cell suspension in PBS were mixed with 90 µL of agarose. A total of 75 µL of this was added to each base layer, respectively. This layer was also allowed to solidify at 4°C for 15 min. The slide was then transferred to a small basin which contained pre‐chilled lysis buffer (14.6 g NaCl, 20 mL EDTA solution, 10 mL lysis solution, 10 mL DMSO, 60 mL deionized H2O), where it remained for 45 min in the dark at 4°C. The lysis buffer was then aspirated and exchanged with a pre‐chilled alkaline solution (1.2 g NaOH, 0.2 mL EDTA solution, 100 mL deionized H2O), where it remained for further 30 min in the dark at 4°C. The slide was then transferred to a horizontal electrophoresis chamber which was filled with cold alkaline solution. The electrophoresis conditions were set to 1.5 V/cm and 300 mA for 20 min. After the electrophoresis, the slide was transferred into a small basin containing pre‐chilled, deionized H2O. After 2 min, the water was aspirated and this washing step was repeated twice more. After the final rinse, the slide was submerged in 70% ethanol for 5 min. Once the slide has dried, 100 µL of diluted Vista Green DNA Dye was added to each well. After 15 min of incubation, the slides were analyzed on an IX‐70 epifluorescence microscope (Olympus, Shinjuku, Japan) using a FITC filter.

Series [2] is described as follows: Water solubility. The class given is physicochemical.
Series [3] concerns A2780wt cells. Description: ATP luminescence assay, A2780wt. Particulars: w/o BGs, 25 µM, 24 h. The class given is cell-based. The source says: (§1) As a second potential mode of cell death, ICD has been investigated. Thus, two hallmarks of ICD, namely release of adenosine triphosphate (ATP) and calreticulin translocation to the plasma membrane have been analyzed in detail. Given that some platinum complexes, including the clinically used drug oxaliplatin [27], as well as BGs, are known inducers of ICD, we investigated the potential of BGs loaded with platinum(II)‐NHC complexes to trigger this process. […] Untreated cells (without compound and without BGs) were tested as negative controls.
(§2) The ATP assay was performed by employing the commercially available ATPlite Luminescence Assay System 96‐well (revvity, Massachusetts, USA). In brief, A2780wt and A2780cis cells, respectively, were seeded at a density of 8 × 10^3 cells per well into an opaque‐walled 96‐well plate with solid bottoms. […] After incubation, 50 µL of the provided mammalian cell lysis solution was added and incubated for further 5 min on an orbital shaker at 700 rpm. Then, 50 µL of a provided substrate solution was added and again incubated for 5 min on an orbital shaker at 700 rpm. The plate was allowed to dark adapt for 10 min and then the luminescence was measured. Analysis was performed on the BioTek Synergy H1.

In series [4] the test system is A2780cis cells. Description: ATP luminescence assay, A2780cis. The class given is cell-based. Particulars: w/o BGs, 25 µM, 24 h.
Description: as §1, §2

In series [5] the test system is caspase‐3 in A2780wt cells. Description: Caspase‐3 activity assay (ApoTox‐Glo), A2780wt. The class given is cell-based. The settings on record: w/o BGs, 25 µM, 24 h. As to the method: Furthermore, caspase‐3 activation serves as a primary hallmark of apoptosis. Therefore, we evaluated this induction with a luminescence‐based caspase‐3 activity assay on A2780wt cells.
The caspase‐3 assay was performed to investigate the induction of apoptosis by the compounds. It was performed by employing the commercially available ApoTox‐Glo Triplex Assay (Promega Corporation, Madison, USA), which specifically correlates cell viability and toxicity to apoptosis. In brief, A2780wt and A2780cis cells, respectively, were seeded at a density of 8 × 10^3 cells per well into an opaque‐walled 96‐well plate with solid bottoms. […] After incubation, 20 µL of the provided viability/toxicity reagent was added and incubated for further 30 min on an orbital shaker at 37°C. […] Then, 100 µL of Caspase‐Glo 3/7 reagent was added, gently shaken for 30 s and further incubated for 30 min. The caspase activation was determined via the measurement of the luminescence. Analysis was performed on the BioTek Synergy H1 (Agilent Technologies, Santa Clara, USA).

Series [6] relates to A2780wt cells. Description: MTT assay, A2780wt cells. The class given is cell-based. The settings on record: for IC50: MTT assay, 72 h exposure. As to the method:
Carboplatin, a second‐generation platinum drug commonly used as part of standard first‐line chemotherapy for ovarian carcinoma, was examined as a reference compound due to its clinical relevance. Additionally, the nonmalignant bone marrow stromal cell line HS‐5 was included as a control to assess specificity of the complexes toward cancer cells.
Unloaded BGs (4 × 10^8 EcN or 2 × 10^8 Ec NM522, which is equivalent to the highest tested BG concentration) were tested as controls.
The exponentially growing cells were seeded at a density of 8 × 10^3 cells/well (A2780wt/cis) or 1 × 10^4 cells/well (HS‐5), respectively, into clear flat‐bottom 96‐well plates in triplicates. […] After another 72 h of incubation, the cellular metabolic activity was measured as an indicator of cell viability employing an MTT assay. Hereby, 20 µL of a 5 mg/mL MTT solution was added to each well, respectively. After 3 h of incubation, the medium was discarded, and the formazan crystals formed were dissolved in DMSO for 15 min with gentle shaking. […] The OD at 620 nm was subtracted from the OD at 595 nm. The OD of the medium was subtracted to exclude the unspecific staining caused by FCS‐containing medium. Cells treated with vehicle control (0.1% DMF) only were set at 100% metabolic activity. The IC50 values were calculated with Prism 8.0 (GraphPad Software Inc., Boston, MA, USA) using nonlinear regression. Significance was evaluated via a one sample t‐test performed with Prism 8.0.
(Tetrazolium dyes change colour on reduction, which living cells bring about.)

As a reminder, the IC50 is the midpoint of a concentration-inhibition curve. The low end stands for inhibition by little substance, the high end for a need for much substance. As to `CCN1[C]([Pt]([O]C(C)=O)([O]C(C)=O)[SH](C)(C)=O)N(CC)c2ccccc21` [Compound 1, (SP‐4‐2)‐Diacetato(1,3‐diethylbenzimidazol‐2‐ylidene)(dimethylsulfoxide)platinum(II)], the “intracellular DNA damage (comet formation)” value (“intracellular DNA damage” for short) in series [1] is given as “induced intracellular DNA damage”. For the same compound, the water solubility entry in series [2] is on record as “approximately 10 mg/mL”. Also, the ATP concentration in series [3] came to 0.20 ± 0.04 µM; in series [4], 0.23 ± 0.05 µM. The “x-fold caspase-3 induction compared to untreated cells” value (from here on “x-fold caspase-3 induction”) in series [5] is on record as 2.64 ± 0.32 x-fold. For the same compound, the IC50 in series [6] was 31.1 ± 2.39 µM. Further, the “metabolic activity of A2780wt cells” value in series [6] (free (non‐loaded) compound, 25 µM, 72 h) worked out at 85%.

For the compound `CCN1[C]([Pt]([O]C(=O)C(Cl)Cl)([O]C(=O)C(Cl)Cl)[SH](C)(C)=O)N(CC)c2ccccc21` [Compound 3, (SP‐4‐2)‐Bis(dichloroacetato)(1,3‐diethylbenzimidazol‐2‐ylidene)(dimethylsulfoxide)platinum(II)], the “intracellular DNA damage” value in series [1] is on record as “induced intracellular DNA damage”. Moreover, the water solubility in series [2] was < 0.5 mg/mL. In addition, the figures for the ATP concentration in series [3] and in series [4] were 0.15 ± 0.08 µM and 0.28 ± 0.04 µM, respectively. In series [5], the “x-fold caspase-3 induction” value worked out at 3.06 ± 1.20 x-fold. Further, inhibition in series [6] was half-maximal at 58.9 ± 2.05 µM (IC50).

Consider “(SP‐4‐2)‐Bis(dichloroacetato)bis(1,3‐diethylbenzimidazol‐2‐ylidene)platinum(II) [Compound 4]”, for which the “intracellular DNA damage” value in series [1] is given as “induced intracellular DNA damage”. For the same compound, the water solubility in series [2] is recorded as < 0.5 mg/mL. Also, the ATP concentration in series [3] is given as 0.32 ± 0.13 µM; in series [4], 0.10 ± 0.03 µM. Besides, the “x-fold caspase-3 induction” value in series [5] came to 1.89 ± 0.03 x-fold. The IC50 in series [6] turned out to be 37.9 ± 1.58 µM.

Consider “(SP‐4‐2)‐Diacetatobis(1,3‐diethylbenzimidazol‐2‐ylidene)platinum(II) [Compound 2]”, for which, in series [1], the “intracellular DNA damage” value was “did not show any evidence of comet formation”. For the same compound, the water solubility result in series [2] is on record as “around 3 mg/mL”. Besides, the values for the ATP concentration in series [3] and in series [4] were 0.32 ± 0.03 µM and 0.31 ± 0.04 µM, respectively. For the same compound, the “x-fold caspase-3 induction” value in series [5] is given as 0.39 ± 0.13 x-fold. Also, the IC50 in series [6] came out at 40.8 ± 2.34 µM.
